Reference: ChEMBL document CHEMBL3352669, “Tetrahydrobenzo[h][1,6]naphthyridine-6-chlorotacrine hybrids as a new family of anti-Alzheimer agents targeting β-amyloid, tau, and cholinesterase pathologies” (Eur J Med Chem, 2014)

Experiments:
[1] = target: Microtubule-associated protein tau (Homo sapiens) (UniProt P10636); assay: Inhibition of aggregation of tau protein (unknown origin) expressed in Escherichia coli BL21 (DE3) assessed as amyloid fibril formation at 10 uM after 24 hrs by thioflavin S fluorescence method
[2] = target: Acetylcholinesterase (Homo sapiens, UniProt P22303); assay: Inhibition of human recombinant AChE using acetylthiocholine iodide as substrate by spectrophotometric analysis
[3] = target: Cholinesterase (Homo sapiens, UniProt P06276); assay: Inhibition of human recombinant BChE using butyrylthiocholine iodide as substrate by spectrophotometric analysis
[4] = target: Amyloid-beta precursor protein (Homo sapiens) (UniProt P05067); assay: Inhibition of aggregation of amyloid beta-42 (unknown origin) expressed in Escherichia coli BL21 (DE3) assessed as amyloid fibril formation at 10 uM after 24 hrs by thioflavin S fluorescence method
Amyloid-beta precursor protein (Homo sapiens), sequence (P05067 whole entry): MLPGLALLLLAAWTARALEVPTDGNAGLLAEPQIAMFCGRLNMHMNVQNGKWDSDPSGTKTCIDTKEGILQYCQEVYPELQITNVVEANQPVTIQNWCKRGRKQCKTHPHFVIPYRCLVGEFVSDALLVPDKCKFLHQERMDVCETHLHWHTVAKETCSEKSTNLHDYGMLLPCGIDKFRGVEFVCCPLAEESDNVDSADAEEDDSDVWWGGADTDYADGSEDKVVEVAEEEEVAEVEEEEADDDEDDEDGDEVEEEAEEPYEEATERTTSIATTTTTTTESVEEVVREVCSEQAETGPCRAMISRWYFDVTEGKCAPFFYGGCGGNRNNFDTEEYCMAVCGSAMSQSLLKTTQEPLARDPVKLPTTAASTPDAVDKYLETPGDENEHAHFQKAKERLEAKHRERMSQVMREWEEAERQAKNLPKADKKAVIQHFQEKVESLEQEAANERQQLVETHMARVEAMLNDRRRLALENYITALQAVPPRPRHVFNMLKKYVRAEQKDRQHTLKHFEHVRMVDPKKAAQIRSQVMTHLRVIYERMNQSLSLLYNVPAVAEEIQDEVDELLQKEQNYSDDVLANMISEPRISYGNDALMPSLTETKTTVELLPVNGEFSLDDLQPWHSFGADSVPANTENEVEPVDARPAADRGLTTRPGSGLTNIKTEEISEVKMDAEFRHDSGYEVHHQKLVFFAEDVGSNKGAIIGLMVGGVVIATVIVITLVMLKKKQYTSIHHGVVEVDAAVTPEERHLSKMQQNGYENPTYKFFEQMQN

Microtubule-associated protein tau (Homo sapiens), sequence (P10636 whole entry): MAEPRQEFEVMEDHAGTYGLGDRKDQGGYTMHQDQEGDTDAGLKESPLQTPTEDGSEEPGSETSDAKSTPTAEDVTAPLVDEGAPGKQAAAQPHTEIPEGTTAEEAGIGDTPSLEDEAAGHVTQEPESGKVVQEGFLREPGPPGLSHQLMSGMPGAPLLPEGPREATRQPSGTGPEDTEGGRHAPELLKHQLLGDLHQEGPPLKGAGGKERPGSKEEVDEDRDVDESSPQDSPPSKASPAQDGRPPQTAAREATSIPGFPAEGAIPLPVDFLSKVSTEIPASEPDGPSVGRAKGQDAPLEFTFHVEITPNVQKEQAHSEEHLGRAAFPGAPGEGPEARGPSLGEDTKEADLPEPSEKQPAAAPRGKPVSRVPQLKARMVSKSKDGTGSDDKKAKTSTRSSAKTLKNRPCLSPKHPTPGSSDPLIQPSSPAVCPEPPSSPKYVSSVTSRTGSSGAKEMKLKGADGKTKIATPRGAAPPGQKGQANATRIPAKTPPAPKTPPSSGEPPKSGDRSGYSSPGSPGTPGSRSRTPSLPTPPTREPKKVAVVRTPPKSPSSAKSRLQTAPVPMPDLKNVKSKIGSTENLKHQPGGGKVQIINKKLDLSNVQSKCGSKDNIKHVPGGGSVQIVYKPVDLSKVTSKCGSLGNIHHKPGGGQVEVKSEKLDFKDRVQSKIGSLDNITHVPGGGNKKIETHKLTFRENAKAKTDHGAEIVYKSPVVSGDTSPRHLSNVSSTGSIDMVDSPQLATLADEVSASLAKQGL
Acetylcholinesterase, sequence (P22303 whole entry): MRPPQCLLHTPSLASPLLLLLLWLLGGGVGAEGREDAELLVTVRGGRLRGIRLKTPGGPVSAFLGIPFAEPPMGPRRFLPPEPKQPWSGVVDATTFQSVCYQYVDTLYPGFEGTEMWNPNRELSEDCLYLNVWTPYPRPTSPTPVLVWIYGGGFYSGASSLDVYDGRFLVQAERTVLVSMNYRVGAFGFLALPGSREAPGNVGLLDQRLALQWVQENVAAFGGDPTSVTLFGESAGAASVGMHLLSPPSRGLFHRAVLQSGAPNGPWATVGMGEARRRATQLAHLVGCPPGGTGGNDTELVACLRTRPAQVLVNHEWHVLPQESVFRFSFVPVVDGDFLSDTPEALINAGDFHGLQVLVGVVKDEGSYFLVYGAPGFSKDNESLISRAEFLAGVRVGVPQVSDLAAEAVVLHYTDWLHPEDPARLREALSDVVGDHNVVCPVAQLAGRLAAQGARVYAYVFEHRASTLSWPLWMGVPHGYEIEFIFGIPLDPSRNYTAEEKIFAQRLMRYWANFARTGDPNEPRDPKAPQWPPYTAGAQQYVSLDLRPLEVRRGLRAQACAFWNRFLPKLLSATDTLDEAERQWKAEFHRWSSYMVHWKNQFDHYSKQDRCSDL
Cholinesterase, sequence (P06276 whole entry): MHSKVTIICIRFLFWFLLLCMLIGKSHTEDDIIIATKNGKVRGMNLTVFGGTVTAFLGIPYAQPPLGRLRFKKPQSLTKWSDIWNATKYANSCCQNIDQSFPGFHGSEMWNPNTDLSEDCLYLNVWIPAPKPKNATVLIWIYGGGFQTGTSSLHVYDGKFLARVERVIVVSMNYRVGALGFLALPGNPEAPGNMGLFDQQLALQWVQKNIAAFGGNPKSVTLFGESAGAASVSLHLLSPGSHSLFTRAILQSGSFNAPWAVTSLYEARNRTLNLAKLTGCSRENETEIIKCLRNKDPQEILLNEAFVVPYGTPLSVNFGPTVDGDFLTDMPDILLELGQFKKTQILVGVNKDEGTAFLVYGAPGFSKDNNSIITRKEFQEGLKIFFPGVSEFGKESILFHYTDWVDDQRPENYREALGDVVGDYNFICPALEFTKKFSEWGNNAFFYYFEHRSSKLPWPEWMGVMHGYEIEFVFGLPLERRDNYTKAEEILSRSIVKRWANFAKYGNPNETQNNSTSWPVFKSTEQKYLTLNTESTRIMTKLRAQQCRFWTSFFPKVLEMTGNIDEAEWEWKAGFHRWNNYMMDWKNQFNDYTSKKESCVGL

Compound	inhibition [1]	IC50 ([2]; read-out: IC50)	IC50 ([3]; read-out: IC50)	inhibition [4]	IC50 [2]	IC50 [3]
O=C(NCCCNc1c2c(nc3cc(Cl)ccc13)CCCC2)c1ccc2nc(-c3ccc(Cl)cc3)c3c(c2c1)NCCC3	40.7%	0.006 nM	120 nM	52.5%	–	–
CCOC(=O)c1ccc2nc(-c3ccc(Cl)cc3)c3c(c2c1)OCCC3	27.9%	–	–	41.8%	Not Active	Not Active
O=C(NCCCCCCCCNc1c2c(nc3cc(Cl)ccc13)CCCC2)c1ccc2nc(-c3ccc(Cl)cc3)c3c(c2c1)NCCC3	68.7%	–	–	77.5%	–	–
O=C(NCCCCCNc1c2c(nc3cc(Cl)ccc13)CCCC2)c1ccc2nc(-c3ccc(Cl)cc3)c3c(c2c1)NCCC3	57.7%	14.2 nM	337 nM	54.3%	–	–
Nc1c2c(nc3cc(Cl)ccc13)CCCC2	1.4%	–	–	11%	–	–
O=C(NCCCCCCCCNc1c2c(nc3cc(Cl)ccc13)CCCC2)c1ccc2nc(-c3ccc(Cl)cc3)c3c(c2c1)OCCC3	37.8%	19.3 nM	223 nM	54.6%	–	–
O=C(NCCCCNc1c2c(nc3cc(Cl)ccc13)CCCC2)c1ccc2nc(-c3ccc(Cl)cc3)c3c(c2c1)NCCC3	58.9%	14.2 nM	205 nM	55.8%	–	–
